This note sets out measurements from patent publication US20020028836A1, “Potassium channel openers” (priority 2000, published 2002).

Read-outs that look alike come from different tables or passages of the source.

As usually defined, the Emax is the maximal effect, on the per cent scale that the assay sets.

The subject of experiment [1] is primary cultured guinea-pig urinary bladder (GPB) cells. In words: Membrane hyperpolarization (MHP) assay, DiBAC(4)3 / FLIPR. In kind it is cell-based. Conditions: for EC50: concentration that elicits 50% of the maximal response for the test sample; for Maximal Response (% P1075) / Emax: maximal steady-state hyperpolarization, normalized to response with 10 μM P1075 (100%). On the procedure: Compounds were evaluated for potassium channel opening activity using primary cultured guinea-pig urinary bladder (GPB) cells.
For the preparation of urinary bladder smooth muscle cells, urinary bladders were removed from male guinea-pigs (Hartley, Charles River, Wilmington, Mass.) weighing 300-400 g and placed in ice-cold Ca^2+-free Krebs solution (Composition, mM: KCl, 2.7; KH2PO4, 1.5; NaCl, 75; Na2HPO4, 9.6; Na2HPO4.7H2O, 8; MgSO4, 2; glucose, 5; HEPES, 10; pH 7.4). Cells were isolated by enzymatic dissociation as previously described with minor modifications (Klockner, U. and Isenberg, G., Pflugers Arch. (1985), 405, 329-339), hereby incorporated by reference. The bladder was cut into small sections and incubated in 5 mL of the Kreb's solution containing I mg/mL collagenase (Sigma, St. Louis, Mo.) and 0.2 mg/mL pronase (Calbiochem, La Jolla, Calif.) with continuous stirring in a cell incubator for 30 minutes. The mixture was then centrifuged at 1300×g for 5 minutes, and the pellet resuspended in Dulbecco's PBS (GIBCO, Gaithersburg, Md.) and recentrifuged to remove residual enzyme. The cell pellet was resuspended in 5 mL growth media (composition: Dulbecco's modified Eagle's medium supplemented with 10% fetal bovine serum, 100 units/mL penicillin, 100 units/mL streptomycin and […] amphotericin B) and further dissociated by pipetting the suspension through a flame-polished Pasteur pipette and passing it through a polypropylene mesh membrane (Spectrum, Houston, Tex.). The cell density was adjusted to 100,000 cells/mL by resuspension in growth media. Cells were plated in clear-bottomed black 96-well plates (Packard) for membrane potential studies at a density of 20,000 cells/well and maintained in a cell incubator with 90% air: 10% CO2 until confluent. Cells were confirmed to be of smooth muscle type by cytoskeletal staining using a monoclonal mouse anti human-α-smooth muscle actin (Biomeda, Foster City, Calif.).
Functional activity at potassium channels was measured by evaluating changes in membrane potential using the bis-oxonol dye DiBAC(4) (Molecular Probes) in a 96-well cell-based kinetic assay system, Fluorescent Imaging Plate Reader (FLIPR) (K. S. Schroeder et al., J. Biomed. Screen., v. 1 pp. 75-81 (1996)), hereby incorporated by reference. DiBAC(4)3 is an anionic potentiometric probe which partitions between cells and extracellular solution in a membrane potential-dependent manner. With increasing membrane potential (for example, K^+ depolarization), the probe further partitions into the cell; this is measured as an increase in fluorescence due to dye interaction with intracellular lipids and proteins. Conversely, decreasing membrane potential (hyperpolarization by potassium channel openers) evokes a decrease in fluorescence.
Confluent guinea-pig urinary bladder cells cultured in black clear-bottomed 96-well plates were rinsed twice with […] assay buffer (composition, mM: HEPES, 20; NaCl, 120; KCl, 2; CaCl2, 2; MgCl2, 1; glucose, 5; pH 7.4 at 25° C.) containing 5 μM DiBAC(4)3 and incubated with […] of the buffer in a cell incubator for 30 minutes at 37° C. to ensure dye distribution across the membrane. After recording the baseline fluorescence for 5 minutes, the reference or test compounds, prepared at 10 times the concentration in the assay buffer, were added directly to the wells. Changes in fluorescence were monitored for an additional 25 minutes. Hyperpolarization responses were corrected for any background noise and were normalized to the response observed with 10 μM of the reference compound P1075 (assigned as 100%), a potent opener of smooth muscle KATP channels (Quast et al., Mol. Pharmacol., v. 43 pp. 474-481 (1993)), hereby incorporated by reference.
Routinely, five concentrations of P1075 or test compounds (log or half-log dilutions) were evaluated and the maximal steady-state hyperpolarization values (expressed as % relative to P1075) plotted as a function of concentration. […]

Experiment [2] concerns tissue strips obtained from Landrace pig bladders. In words: Functional potassium channel opening activity in isolated bladder strips (field-stimulated twitch). Conditions: for Index: ED50 for P1075 divided by ED50 for the test agonist in a given tissue, averaged; for Emax / Efficacy (% P1075): maximal efficacy relative to P1075, field stimulation 0.05 Hz, 0.5 ms, 20 volts; for EC50: amount of agent necessary to cause 50% of the agent's maximal response, read-out: ED50 (the source's name). On the procedure: Compounds were evaluated for functional potassium channel opening activity using tissue strips obtained from Landrace pig bladders.
Landrace pig bladders were obtained from female Landrace pigs of 9-30 kg. Landrace pigs were euthanized with an intraperitoneal injection of pentobarbital solution, Somlethal®, J. A. Webster Inc., Sterling, Mass. The entire bladder was removed and immediately placed into Krebs Ringer bicarbonate solution (composition, mM: NaCl, 120; NaHCO3, 20; dextrose, 11; KCl, 4.7; CaCl2, 2.5; MgSO4, 1.5; KH2PO4, 1.2; K2EDTA, 0.01, equilibrated with 5% CO2/95% O2pH 7.4 at 37° C.). Propranolol (0.004 mM) was included in all of the assays to block β-adrenoceptors. The trigonal and dome portions were discarded. Strips 3-5 mm wide and 20 mm long were prepared from the remaining tissue cut in a circular fashion. The mucosal layer was removed. One end was fixed to a stationary glass rod and the other to a Grass FT03 transducer at a basal preload of 1.0 gram. Two parallel platinum electrodes were included in the stationary glass rod to provide field stimulation of 0.05 Hz, 0.5 milli-seconds at 20 volts. This low frequency stimulation produced a stable twitch response of 100-500 centigrams. Tissues were allowed to equilibrate for at least 60 minutes and primed with 80 mM KCl. A control concentration response curve (cumulative) was generated for each tissue using the potassium channel opener P1075 as the control agonist. […] After a 60 minute rinsing period, a concentration response curve (cumulative) was generated for the test agonist in the same fashion as that used for the control agonist P1075. The maximal efficacy of each compound (expressed as % relative to P1075) is reported. The amount of agent necessary to cause 50% of the agent's maximal response (ED50) was calculated using “ALLFIT” (DeLean et al., Am. J. Physiol., 235, E97 (1980)), hereby incorporated by reference. Agonist potencies were also expressed as an index relative to P1075. The index was calculated by dividing the ED50 for P1075 by the ED50 for the test agonist in a given tissue. Each tissue was used for only one test agonist, and the indices obtained from each tissue were averaged to provide an average index of potency.

On to `CC1=C(CC(NC(=O)c2ccc(Cl)cc2)NC(=NC#N)Nc2cccnc2)C(C)(C)CCC1` (single isomer, unassigned; (+)) [Example 88, (+) 4-chloro-N-[1-{[(cyanoimino)(3-pyridinylamino)methyl]amino}-2-(2,6,6-trimethyl-1-cyclohexen-1-yl)ethyl]benzamide], for which, in experiment [1], the EC50 is 0.22 µM and the “Maximal Response (% P1075)” value turned out to be 87 % P1075. Also, in experiment [2], the Index is listed as 0.074 and the EC50 was determined as 10 µM. This compound yielded an Emax in experiment [2] (Sus scrofa) of 36%.

Turning to `Cc1ccc(C(=O)NC(NC(=NC#N)Nc2cccnc2)C(C)(C)C)cc1` (single isomer, unassigned; (-)) [Example 57, (−) N-(1-{[(cyanoimino)(3-pyridinylamino)methyl]amino}-2,2-dimethylpropyl)-4-methylbenzamide], in experiment [1], the EC50 worked out at 4.6 µM and the “Maximal Response (% P1075)” value was determined as 80 % P1075. In experiment [2], the Index came out at 0.007, the EC50 came out at 14 µM and the “Efficacy (% P1075)” value was determined as 85 % P1075.

For the compound `CCC(CC)(CCC#N)C(NC(=O)c1ccc(Cl)cc1)NC(=NC#N)Nc1cccnc1` (single isomer, unassigned; (-)) [Example 86, (−) 4-chloro-N-(4-cyano-1-{[(cyanoimino)(3-pyridinylamino)methyl]amino}-2,2-diethylbutyl)benzamide], in experiment [1], the EC50 was 0.086 µM and the “Maximal Response (% P1075)” value is 83 % P1075. Moreover, in experiment [2], the Index came out at 0.01, the EC50 amounted to 30 µM and the “Efficacy (% P1075)” value amounted to 19 % P1075.

On to `CC1=C(CC(NC(=O)c2ccc(Cl)cc2)NC(=NC#N)Nc2cccnc2)C(C)(C)CCC1` (single isomer, unassigned; (-)) [Example 89, (−) 4-chloro-N-[1-{[(cyanoimino)(3-pyridinylamino)methyl]amino}-2-(2,6,6-trimethyl-1-cyclohexen-1-yl)ethyl]benzamide], for which, in experiment [1], the EC50 amounted to 0.1 µM and the “Maximal Response (% P1075)” value is given as 88 % P1075. In experiment [2], the Index turned out to be 0.120, the EC50 came out at 3.4 µM and the “Efficacy (% P1075)” value is on record as 41 % P1075.

With `C=CCC(C)(C)C(NC(=O)c1ccc(Cl)cc1)NC(=NC#N)Nc1cccnc1` (single isomer, unassigned; (-)) [Example 90, (−) 4-chloro-N-(1-{[(cyanoimino)(3-pyridinylamino)methyl]amino}-2,2-dimethyl-4-pentenyl)benzamide], the Emax in experiment [1] (Cavia porcellus) was found to be 55%; in experiment [2] (Sus scrofa), 44%. In addition, the EC50 in experiment [1] was 0.17 µM; in experiment [2] (Sus scrofa), 0.42 µM. For the same compound, in experiment [2], the Index came to 0.420.

In experiment [1] (Cavia porcellus), `Cc1ccc(C(=O)NC(NC(=S)Nc2cccnc2)C(F)(F)F)cc1` (stereo not drawn) [Example 1, 4-methyl-N-(2,2,2-trifluoro-1-{[(3-pyridinylamino)carbothioyl]amino}ethyl)benzamide] showed an EC50 of 0.07 µM and an Emax of 116%. Moreover, in experiment [2], the Index is 0.009. In addition, in experiment [2] (Sus scrofa), the EC50 is 9 µM and the maximum response (Emax) was determined as 100%.

Regarding `Cc1ccc(C(=O)NC(NC(=S)Nc2ccc(F)cc2)C(F)(F)F)cc1` (stereo not drawn) [Example 3, 4-methyl-N-(2,2,2-trifluoro-1-{[(4-fluoroanilino)carbothioyl]amino}ethyl)benzamide], the values for the EC50 in experiment [1] (Cavia porcellus) and in experiment [2] (Sus scrofa) were 0.89 µM and 9 µM, respectively. In addition, the maximum response (Emax) in experiment [1] (Cavia porcellus) was determined as 79%; in experiment [2] (Sus scrofa) it was 97%. Moreover, the Index in experiment [2] was determined as 0.012.

For `Cc1ccc(C(=O)NC(NC(=S)Nc2cccc([N+](=O)[O-])c2)C(F)(F)F)cc1` (stereo not drawn) [Example 4, 4-methyl-N-(2,2,2-trifluoro-1-{[(3-nitroanilino)carbothioyl]amino}ethyl)benzamide], the EC50 in experiment [1] (Cavia porcellus) was determined as 0.3 µM; in experiment [2] (Sus scrofa), 18 µM. Also, the results for the Emax in experiment [1] (Cavia porcellus) and in experiment [2] (Sus scrofa) were 133% and 89%, respectively. This compound gave an Index in experiment [2] of 0.015.

In experiment [1] (Cavia porcellus), `Cc1ccc(C(=O)NC(NC(=S)Nc2ccccc2)C(F)(F)F)cc1` (stereo not drawn) [Example 9, N-{1-[(anilinocarbothioyl)amino]-2,2,2-trifluoroethyl}-4-methylbenzamide] displayed an EC50 of 0.08 µM and an Emax of 104%. Moreover, in experiment [2], the Index was 0.011. Moreover, in experiment [2] (Sus scrofa), the EC50 was found to be 17 µM and the maximum response (Emax) came out at 91%.

`Cc1ccc(C(=O)NC(NC(=S)Nc2ccccc2F)C(F)(F)F)cc1` (stereo not drawn) [Example 11, 4-methyl-N-(2,2,2-trifluoro-1-{[(2-fluoroanilino)carbothioyl]amino}ethyl)benzamide]: the figures for the EC50 in experiment [1] (Cavia porcellus) and in experiment [2] (Sus scrofa) were 0.51 µM and 19 µM, respectively. For the same compound, the Emax in experiment [1] (Cavia porcellus) was 109%; in experiment [2] (Sus scrofa), 100%. Also, the Index in experiment [2] is 0.011.

In experiment [1] (Cavia porcellus), `Cc1ccc(C(=O)NC(NC(=S)Nc2cccc(F)c2)C(F)(F)F)cc1` (stereo not drawn) [Example 13, 4-methyl-N-(2,2,2-trifluoro-1-{[(3-fluoroanilino)carbothioyl]amino}ethyl)benzamide] displayed an EC50 of 0.35 µM and a maximal response (Emax) of 91%. The Index in experiment [2] came out at 0.022. In experiment [2] (Sus scrofa), the EC50 is 10 µM and the Emax was 95%.

As to `Cc1ccc(C(=O)NC(NC(=S)Nc2cc(F)ccc2F)C(F)(F)F)cc1` (stereo not drawn) [Example 14, N-(1-{[(2,5-difluoroanilino)carbothioyl]amino}-2,2,2-trifluoroethyl)-4-methylbenzamide], in experiment [1] (Cavia porcellus), the EC50 was 0.3 µM and the Emax was found to be 110%. Moreover, the Index in experiment [2] came to 0.027. In experiment [2] (Sus scrofa), the EC50 worked out at 14 µM and the Emax was 96%.
